This is an account of results in EPA's ToxValDB 9.5 (doi:10.2903/j.efsa.2016.4475).

One series relates to Rattus norvegicus. The following applies: oral.
In another series the test system is Mus musculus. Conditions: chronic; duration: 103 weeks; oral; diet; mortality.
A further series concerns Pontoscolex corethrurus. The following applies: acute; mortality.
A further series deals with Daphnia magna. The following applies: acute; mortality.
[1] abbreviates: chronic, duration: 103 weeks, diet, histopathology: neoplastic.

In brackets after ≈: the same amount, converted by molar mass.

With `CC(=O)O[C@@H]1C[C@H](C)CC[C@H]1C(C)C` (racemic) [dl-Menthyl acetate], the no-observed-adverse-effect level (NOAEL) was 375 mg/kg-day in the series on Rattus norvegicus (setting [1]) and 600 mg/kg-day in the series on Mus musculus. The compound `CC(=O)OC1CCCCC1` [Cyclohexyl acetate] came in with an LC50 in the series with Pontoscolex corethrurus of 1150 mg/kg. Consider `CC(=O)O[C@@H]1C[C@H]2CC[C@]1(C)C2(C)C` [Isobornyl acetate], for which the NOAEL in the series with Rattus norvegicus (subchronic, duration: 13 weeks, gavage, M/F, organ weight) turned out to be 15 mg/kg-day. For `CC1CCC(C(C)C)C(O)C1` (stereo unspecified) [Menthol], the NOAEL was found to be 375 mg/kg-day in the series on Rattus norvegicus (setting [1]) and 600 mg/kg-day with Mus musculus. Regarding `CCCCCC1C(=O)CCC1CC(=O)OC` (stereo unspecified) [Methyl dihydrojasmonate], the NOAEL with Rattus norvegicus (subchronic, duration: 13 weeks, diet, M/F, Sprague-Dawley, no effects) was 100 mg/kg-day. The same compound showed an LC50 in the series with Pontoscolex corethrurus of 1430 mg/kg. In the case of `CC(=O)/C=C/C1C(C)=CCCC1(C)C` (stereo not drawn) [alpha-Ionone], in the series with Rattus norvegicus (subchronic, duration: 13 weeks, diet, M/F, food consumption), the NOAEL came to 10 mg/kg-day. As for `CC(=O)/C=C/C1C(C)=CCC(C)C1(C)C` (stereo not drawn) [alpha-Irone], the LC50 in the series with Daphnia magna came to 0.513 µg/mL (≈ 2.49 µM). Regarding `CC(=O)/C=C/C1=C(C)CCCC1(C)C` [beta-Ionone], the NOAEL with Rattus norvegicus (subchronic, duration: 13 weeks, diet, M/F, body weight) stood at 10 mg/kg-day.

In general, NOAEL refers to the highest tested level that showed no adverse finding.
